According to US20250074911A1, “MACROCYCLIC BTK INHIBITORS” (Crossfire Oncology Holding B.V., priority 2021, published 2025):

How the values were obtained:
[1] = target: full-length wt-BTK enzyme (Homo sapiens (Human), UniProt Q06187); test: Biochemical kinase assay wt-BTK (IMAP)
Description: Biochemical kinase assay wt-BTK To determine the inhibitory activity of compounds on wt-BTK enzyme activity, the IMAP® assay (Molecular Devices) was used. […] After pre-incubation of 1 hour in the dark at room temperature, fluorescein-labeled MBP-derived substrate peptide (Molecular Devices, cat. no. RP 7123) was added, followed by ATP to start the reaction. Final enzyme concentration was 1.2 nM, final substrate concentration 50 nM, and final ATP concentration was 4 μM. The reaction was allowed to proceed for 2 hours at room temperature in the dark. The reaction was stopped by quenching with IMAP progressive binding solution according to the protocol of the manufacturer (Molecular Devices). Fluorescein polarization was measured on an Envision multimode reader (Perkin Elmer, Waltham, MA, U.S.A.). […] Results of the wt-BTK binding affinity are shown in Table 1 below. • IC50 wt-BTK: […]

[2] = target: full-length BTK C481S enzyme (Homo sapiens (Human), UniProt Q06187, C481S); test: Biochemical kinase assay BTK C481S (IMAP)
Description: Biochemical kinase assay BTK […] To determine the inhibitory activity of compounds on BTK C481S enzyme activity, the IMAP® assay (Molecular Devices) was used. […] After pre-incubation of 1 hour in the dark at room temperature, fluorescein-labeled MBP-derived substrate peptide (Molecular Devices, cat. no. RP 7123) was added, followed by ATP to start the reaction. Final enzyme concentration was 1.2 nM final substrate concentration 50 nM, and final ATP concentration was 7 μM. The reaction was allowed to proceed for 2 hours at room temperature in the dark. The reaction was stopped by quenching with IMAP progressive binding solution according to the protocol of the manufacturer (Molecular Devices). Fluorescein polarization was measured on an Envision multimode reader (Perkin Elmer, Waltham, MA, U.S.A.). IC50 were calculated using XLfitTM5 software (ID Business Solutions, Ltd., Surrey, U.K.). Results of the BTK […] binding affinity are shown in Table 1 below. • IC50 BTK […]: […]

[3] = system: wt-REC-1 mantle cell lymphoma cells; test: Cell proliferation assay wt-REC-1 (ATPlite, 72 hours); format: cell-based; conditions: 72 h; read-out: IC50 wt-REC-1
Description: Results of the BTK […] binding affinity are shown in Table 1 below. • IC50 BTK […]: […] wt-REC-1 mantle cell lymphoma cells were purchased from American Type Culture Collection via Synthego Corporation (cat. no. CRL-3004, ATCC). […] Luminescence was recorded on an Envision multimode reader. The cell signal at the start of incubation was recorded separately in order to distinguish between cell population growth and cell death. In addition, maximum growth was determined by incubation of a duplicate without compound in the presence of 0.3% DMSO. Percentage growth was used as the main y-axis signal. IC50s were fitted by non-linear regression using IDBS XLfitTM5 using a 4-parameter logistic curve, yielding a maximum signal, minimum signal, hill-parameter and IC50. Results of the wt-REC-1 proliferation are shown in Table 1 below. • IC50 wt-REC-1: […]

REC-1 T474I cell lines = test: Cell proliferation assay REC-1 BTK T474I knock-in cells (ATPlite, 72 hours); format: cell-based; conditions: Homo sapiens, Rec1; 72 hours; read-out: IC50 REC-1 T474I
Description: Cell proliferation assay Generation of BTK […] knock-in cell lines wt-REC-1 cell lines expressing mutant BTK were created at Synthego Corporation. Cell lines expressing BTK […] was generated via CRISPR/Cas9. Monoclonal REC-1 […] cell lines were obtained by single cell cloning. The mutation status of all cell lines was confirmed via sequencing. […] Luminescence was recorded on an Envision multimode reader. The cell signal at the start of incubation was recorded separately in order to distinguish between cell population growth and cell death. In addition, maximum growth was determined by incubation of a duplicate without compound in the presence of 0.3% DMSO. Percentage growth was used as the main y-axis signal.

[4] = system: wt-TMD8 diffuse large B-cell lymphoma cells; test: Cell proliferation assay wt-TMD8 (ATPlite, 120 hours); format: cell-based; conditions: B-cell; wt-TMD8 cells, 120 hours, ATPlite; read-out: IC50 wt-TMD8
Description: Cell proliferation assay wt-TMD8 diffuse large B-cell lymphoma cells were purchased from Tokyo Medical and Dental University and cultured in RPMI-1640 cell culture medium (cat. no. 61870036, Life Technologies), supplemented with 10% (v/v) heat-inactivated fetal bovine calf serum and 1% penicillin/[…]. 1600 cells per well (in 45 μl) were seeded in a white 384-well culture plate (cat. no. 781080, Greiner Bio-One) and allowed to rest for at least 5 hours at 37° C., 95% humidity, and 5% CO2. 5 μl compound solution was added to the cells and incubation was continued for 120 hours (5 days), followed by addition of 24 μl ATPlite 1Step™ (PerkinElmer, Groningen, The Netherlands) solution was added to each well. Luminescence was recorded on an Envision multimode reader. The cell signal at the start of incubation was recorded separately in order to distinguish between cell population growth and cell death. In addition, maximum growth was determined by incubation of a duplicate without compound in the presence of 0.3% DMSO. Percentage growth was used as the main y-axis signal.

Chain of full-length wt-BTK enzyme (Q06187 whole entry): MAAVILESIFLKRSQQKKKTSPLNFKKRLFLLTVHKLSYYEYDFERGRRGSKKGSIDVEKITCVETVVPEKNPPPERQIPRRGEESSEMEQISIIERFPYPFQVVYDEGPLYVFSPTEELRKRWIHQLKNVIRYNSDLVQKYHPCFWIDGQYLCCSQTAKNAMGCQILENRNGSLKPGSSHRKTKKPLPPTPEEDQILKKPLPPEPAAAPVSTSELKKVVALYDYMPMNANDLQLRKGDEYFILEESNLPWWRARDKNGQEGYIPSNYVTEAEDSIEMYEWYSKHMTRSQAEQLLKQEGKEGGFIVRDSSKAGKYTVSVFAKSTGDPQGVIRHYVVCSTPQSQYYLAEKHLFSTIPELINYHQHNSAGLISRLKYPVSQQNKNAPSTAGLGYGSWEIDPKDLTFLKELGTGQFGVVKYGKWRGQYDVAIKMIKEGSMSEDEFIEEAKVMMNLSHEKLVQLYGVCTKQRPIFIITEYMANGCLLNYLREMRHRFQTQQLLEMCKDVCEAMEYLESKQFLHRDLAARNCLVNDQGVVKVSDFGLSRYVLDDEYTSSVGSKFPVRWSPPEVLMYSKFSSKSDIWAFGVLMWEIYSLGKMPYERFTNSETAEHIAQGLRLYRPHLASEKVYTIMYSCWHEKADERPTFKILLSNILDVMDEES
Chain of full-length BTK C481S enzyme (Q06187 whole entry C481S): as the sequence (Q06187 whole entry) above, with C481S counted along it

| Compound | IC50 [1] | IC50 [2] | IC50 [3] | IC50 [4] | IC50 (REC-1 T474I cell lines) |
| --- | --- | --- | --- | --- | --- |
| COc1ccc(F)cc1C(=O)NCc1ccc(-c2nc3n4c(cnc(N)c24)/C=C/CCN[C@H](C)CC(=O)N[C@@H]2CCC[C@@H]3C2)cc1 [Example 212] | < 0.005 µM | < 0.005 µM | < 0.1 µM | < 0.1 µM | 0.5 to 10 µM |
| C[C@H]1CC(=O)N[C@@H]2CCC[C@H](C2)n2nc(-c3ccc(C(=O)Nc4cc(C#N)ccn4)cc3)c3c(N)ncc(c32)/C=C/CCO1 [Example 161] | < 0.005 µM | < 0.005 µM | < 0.1 µM | < 0.1 µM | < 0.1 µM |
| Nc1ncc2c3c1c(-c1ccc(C(=O)Nc4cc(C(F)(F)F)ccn4)cc1)nn3[C@@H]1CCC[C@H](C1)NC(=O)CCCNC/C=C/2 [Example 15] | < 0.005 µM | < 0.005 µM | 0.1 to 1 µM | < 0.1 µM |  |
| Nc1ncc2c3c1c(-c1ccc(C(=O)Nc4cc(C(F)(F)F)ccn4)cc1)nn3[C@@H]1CCC[C@H](C1)NC(=O)CCNC/C=C/C2 [Example 106] | 0.005 to 0.05 µM | 0.005 to 0.05 µM | 1 to 10 µM |  | 0.5 to 10 µM |
| C[C@@H]1CCn2nc(-c3ccc(C(=O)Nc4cc(C(F)(F)F)ccn4)cc3)c3c(N)ncc(c32)/C=C/CNCCCC(=O)N1 [Example 67] | < 0.005 µM | < 0.005 µM | 1 to 10 µM |  | 0.5 to 10 µM |
| C[C@@H]1CCn2nc(-c3ccc(C(=O)Nc4cc(C(F)(F)F)ccn4)cc3)c3c(N)ncc(c32)/C=C/CCCCCCC(=O)N1 [Example 62] | < 0.005 µM | < 0.005 µM | 0.1 to 1 µM |  | 0.5 to 10 µM |
| Nc1ncc2c3c1c(-c1ccc(C(=O)Nc4cc(C(F)(F)F)ccn4)cc1)nn3[C@@H]1CCC[C@H](C1)C(=O)NCCCCCC2 [Example 117] | 0.005 to 0.05 µM | < 0.005 µM | 0.1 to 1 µM |  | 0.5 to 10 µM |
| C[C@@H]1CCn2nc(-c3ccc(C(=O)Nc4cc(C(F)(F)F)ccn4)cc3)c3c(N)ncc(c32)/C=C/CO[C@@H](C)C(=O)N1 [Example 58] | 0.005 to 0.05 µM | 0.005 to 0.05 µM | 1 to 10 µM |  | 0.5 to 10 µM |
| C[C@@H]1CCn2nc(-c3ccc(C(=O)Nc4cc(C(F)(F)F)ccn4)cc3)c3c(N)ncc(c32)CC=CCCCCCC(=O)N1 [Example 111] | 0.005 to 0.05 µM | 0.005 to 0.05 µM | 1 to 10 µM |  | 0.5 to 10 µM |
| Nc1ncc2c3c1c(-c1ccc(C(=O)Nc4cc(C(F)(F)F)ccn4)cc1)nn3[C@@H]1CCC[C@H](C1)NC(=O)CCCNC/C=C\C2 [Example 108] | < 0.005 µM | < 0.005 µM | 0.1 to 1 µM |  | 0.5 to 10 µM |
| Nc1ncc2c3c1c(-c1ccc(C(=O)Nc4cc(C(F)(F)F)ccn4)cc1)nn3[C@@H]1CCC[C@H](C1)NC(=O)CNCCCC2 [Example 127] | < 0.005 µM | < 0.005 µM | 0.1 to 1 µM |  | 0.5 to 10 µM |
| COC1/C=C/c2cnc(N)c3c(-c4ccc(C(=O)Nc5cc(C(F)(F)F)ccn5)cc4)nn(c23)[C@@H]2CCC[C@H](C2)NC(=O)CCC1 (some centres unmarked) [Example 19] | 0.005 to 0.05 µM | 0.005 to 0.05 µM | 0.1 to 1 µM |  | 0.5 to 10 µM |
| C[C@@H]1CCn2nc(-c3ccc(C(=O)Nc4cc(C(F)(F)F)ccn4)cc3)c3c(N)ncc(c32)CCCO[C@H](C)C(=O)N1 [Example 113] | 0.005 to 0.05 µM | 0.005 to 0.05 µM | 1 to 10 µM |  | 0.5 to 10 µM |
| Nc1ncc2c3c1c(-c1ccc(C(=O)Nc4ccccn4)cc1)nn3[C@@H]1CCC[C@H](C1)C(=O)NCC/C=C\C2 [Example 91] | 0.05 to 0.5 µM | 0.05 to 0.5 µM | 1 to 10 µM |  | 0.5 to 10 µM |
| C[C@@H]1CCn2nc(-c3ccc(C(=O)Nc4cc(C(F)(F)F)ccn4)cc3)c3c(N)ncc(c32)/C=C/CN(C)CCCC(=O)N1 [Example 66] | < 0.005 µM | < 0.005 µM | 1 to 10 µM |  | 0.5 to 10 µM |
| Nc1ncc2c3c1c(-c1ccc(C(=O)Nc4ccccn4)cc1)nn3[C@@H]1CCC[C@H](C1)C(=O)NCCC/C=C\C2 [Example 90] | 0.005 to 0.05 µM | 0.005 to 0.05 µM | 0.1 to 1 µM |  | 0.5 to 10 µM |
| Nc1ncc2c3c1c(-c1ccc(C(=O)Nc4cc(C(F)(F)F)ccn4)cc1)nn3[C@@H]1CCC[C@H](C1)NC(=O)CCNCCCC2 [Example 112] | < 0.005 µM | < 0.005 µM | 0.1 to 1 µM |  | 0.1 to 0.5 µM |

Now from value to compound, other results behind:

| IC50 [1] | IC50 [2] | IC50 [3] | IC50 [4] | Compound | IC50 (REC-1 T474I cell lines) |
| --- | --- | --- | --- | --- | --- |
| 0.005 to 0.05 µM | 0.05 to 0.5 µM | 0.1 to 1 µM |  | Nc1ncc2c3c1c(-c1ccc(C(=O)Nc4cc(C(F)(F)F)ccn4)cc1)nn3[C@@H]1CCC[C@H](C1)C(=O)NCCCC/C=C/C2 [Example 85a] | 0.5 to 10 µM |
| 0.005 to 0.05 µM | 0.005 to 0.05 µM | 0.1 to 1 µM |  | Nc1ncc2c3c1c(-c1ccc(C(=O)Nc4cc(C(F)(F)F)ccn4)cc1)nn3[C@@H]1CCC[C@H](C1)NC(=O)CCCCC/C=C/C2 [Example 101a] | 0.5 to 10 µM |
| 0.005 to 0.05 µM | 0.005 to 0.05 µM | 0.1 to 1 µM |  | C[C@@H]1CCn2nc(-c3ccc(C(=O)Nc4cc(C(F)(F)F)ccn4)cc3)c3c(N)ncc(c32)C/C=C\CCCC(=O)N1 [Example 109a] | 0.5 to 10 µM |
| 0.005 to 0.05 µM | 0.005 to 0.05 µM | 0.1 to 1 µM |  | Nc1ncc2c3c1c(-c1ccc(C(=O)Nc4cc(C(F)(F)F)ccn4)cc1)nn3[C@@H]1CCC[C@H](C1)NC(=O)CCC/C=C/C2 [Example 94a] | 0.5 to 10 µM |
| 0.005 to 0.05 µM | 0.005 to 0.05 µM | 0.1 to 1 µM |  | Nc1ncc2c3c1c(-c1ccc(C(=O)Nc4ccccn4)cc1)nn3[C@@H]1CCC[C@H](C1)C(=O)NCCCCC/C=C/C2 [Example 88a] | 0.5 to 10 µM |
| 0.005 to 0.05 µM | 0.005 to 0.05 µM | 0.1 to 1 µM |  | Nc1ncc2n3c(nc(-c4ccc(C(=O)Nc5cc(C(F)(F)F)ccn5)cc4)c13)[C@@H]1CCC[C@H](C1)NC(=O)CCC/C=C/C2 [Example 133a] | 0.5 to 10 µM |
| < 0.005 µM | < 0.005 µM | 0.1 to 1 µM |  | Nc1ncc2c3c1c(-c1ccc(C(=O)Nc4cc(C(F)(F)F)ccn4)cc1)nn3[C@@H]1CCC[C@H](C1)NC(=O)CCCCCC/C=C/C2 [Example 103a] | 0.1 to 0.5 µM |
| 0.05 to 0.5 µM | 0.05 to 0.5 µM | 1 to 10 µM |  | Nc1ncc2c3c1c(-c1ccc(C(=O)Nc4ccccn4)cc1)nn3[C@@H]1CCC[C@H](C1)NC(=O)COC/C=C/C2 [Example 104a] | 0.5 to 10 µM |
| 0.05 to 0.5 µM | 0.05 to 0.5 µM | 1 to 10 µM |  | Nc1ncc2c3c1c(-c1ccc(C(=O)Nc4ccccn4)cc1)nn3[C@@H]1CCC[C@H](C1)C(=O)NCCCC/C=C/C2 [Example 87a] | 0.5 to 10 µM |
| 0.05 to 0.5 µM | 0.05 to 0.5 µM | 1 to 10 µM |  | Nc1ncc2c3c1c(-c1ccc(C(=O)Nc4ccccn4)cc1)nn3[C@@H]1CCC[C@H](C1)NC(=O)CC/C=C/C2 [Example 96a] | 0.5 to 10 µM |
